{"source": "patent US20200038397A1", "about": "“PHARMACOTHERAPY FOR PREVENTING OR TREATING GLAUCOMA” (KOWA COMPANY, LTD., priority 2014, published 2020)", "test_system": "white rabbit", "assay": "intraocular pressure-lowering effect of single and combined eye drop administration in white rabbits", "format": "in vivo", "conditions": "for IOP: intraocular pressure, 0 h: initial intraocular pressure immediately before application; for IOP: intraocular pressure, 0 h / IOP: intraocular pressure, 0.5 h / IOP: intraocular pressure, 1 h: n = 10, Compound 1 0.4% 50 μL, brimonidine 0.1% 50 μL; for IOP: intraocular pressure, 0.5 h: 0.5 h after application; for IOP: intraocular pressure, 1 h: 1 h after application", "protocol": "To investigate the usefulness of the combination of (S)-(−)-1-(4-fluoro-5-isoquinolinesulfonyl)-2-methyl-1,4-homopiperazine (Compound 1) and an α2 agonist, intraocular pressure-lowering effect was compared between the case where each drug was singly administered to an experimental animal and the case where the drugs were administered to an experimental animal in combination.\n(S)-(−)-1-(4-fluoro-5-isoquinolinesulfonyl)-2-methyl-1,4-homopiperazine hydrochloride dihydrate was dissolved in physiological saline, and the solution was then neutralized (pH 6.0) with addition of sodium dihydrogen phosphate and sodium hydroxide to prepare a solution of Compound 1 at a desired concentration.\nCommercially available brimonidine (Senju Pharmaceutical Co., Ltd., AIPHAGAN eye drop 0.1%) was directly used.\nThe intraocular pressure-lowering effect of combined administration of Compound 1 and brimonidine was investigated. As controls, the intraocular pressure-lowering effect of single administration of Compound 1 and that of single administration of brimonidine were further investigated.\nSolution of Compound 1: 0.4% solution (amount of application: 50 μL)\nBrimonidine: 0.1% eye drop (amount of application: 50 μL)\nExperimental animal: white rabbit (sex: male, 10 rabbits per group)\n1) One drop of […] oxybuprocaine hydrochloride eye drop (trade name: Benoxil 0.4% solution) was applied to both eyes of an experimental animal for local anesthesia (data were acquired only from the eye to which the eye drop was applied).\n2) The intraocular pressure was measured immediately before administration of a solution of a test compound, and the measurement was used as the initial intraocular pressure.\n3) The solution of Compound 1 was applied to one eye of the experimental animal, and subsequently the solution of brimonidine was applied to the same eye.\n4) One drop of the 0.4% oxybuprocaine hydrochloride eye drop was applied to each eye for local anesthesia 0.5 hours, 1 hour, 2 hours, 3 hours, 4 hours, and 5 hours after the application of the agents, and the intraocular pressure was then measured.\nCompound 1 was singly applied, and a test was performed at the same measurement times as in the combined administration test.\nA test was performed using the same method as in the single administration test except that the test solution in the single administration of Compound 1 was replaced with that of brimonidine.\nThe intraocular pressure was represented as an amount of change from the initial intraocular pressure. For statistical processing, Stat Preclinica Client 1.1 with parametric Tukey's multiple comparison was used.", "data": [{"smiles": "C[C@H]1CNCCCN1S(=O)(=O)c1cccc2cncc(F)c12", "note": "[Compound 1, (S)-(−)-1-(4-fluoro-5-isoquinolinesulfonyl)-2-methyl-1,4-homopiperazine]", "values": [{"measurement": "IOP: intraocular pressure, 0 h", "value": "26.5 ± 0.8", "unit": "mmHg"}, {"measurement": "IOP: intraocular pressure, 0.5 h", "value": "20.5 ± 1.2", "unit": "mmHg"}, {"measurement": "IOP: intraocular pressure, 1 h", "value": "15.9 ± 1.0", "unit": "mmHg"}]}, {"smiles": "Brc1c(NC2=NCCN2)ccc2nccnc12", "note": "[Brimonidine, brimonidine]", "values": [{"measurement": "IOP: intraocular pressure, 0 h", "value": "24.2 ± 1.3", "unit": "mmHg"}, {"measurement": "IOP: intraocular pressure, 0.5 h", "value": "25.2 ± 0.9", "unit": "mmHg"}, {"measurement": "intraocular pressure-lowering action 0.5 hours after application of an eye drop (in words)", "setting": "0.5 hours after application", "value": "no intraocular pressure-lowering action"}, {"measurement": "IOP: intraocular pressure, 1 h", "value": "19.4 ± 1.2", "unit": "mmHg"}]}]}
